The text below walks through data of US20150283051A1, “DERIVATIVE OF NOVEL POLYHYDROXY AROMATIC COMPOUND AND USE THEREOF” (RNS CO.,LTD., priority 2012, published 2015).

Data set [1] relates to B-16 mouse melanoma cells. The conditions noted are these: 1 μg/ml or more. Here is the method:
Then, these cells were treated using trypsin, separated from a culture vessel and centrifuged, then, melanin was extracted from the cells. Melanin was dissolved by adding 1 ml of 1N sodium hydroxide solution to the extract and subjected to measurement of absorbance at 475 nm, and an amount of the generated melanin was expressed by an absorbance per unit number of cells (10^6 cells) (this procedure was repeated three times).

Data set [2] concerns B-16 mouse melanoma cells. Description: Measurement of melanin generation inhibitory effects in cultured melanoma cells. The data set is classed as cell-based. The settings on record: for inhibition at 20 µg/mL: concentration 20 μg/ml.
[3] abbreviates: Mus musculus, 72 h, concentration 5 μg/ml, cultured 3 days, relative to control, read-out: Inhibition rate (melanin generation).
[4] abbreviates: Mus musculus, 72 h, cultured 3 days, relative to control, read-out: Inhibition rate (melanin generation).

As for `Oc1ccc(O)cc1` [Hydroquinone, hydroquinone, reference compound], the Cytotoxicity result in data set [1] is recorded as “serious cytotoxicity”. Also, the inhibition at 1 µg/mL in data set [2] (Mus musculus, 72 h, concentration 1 μg/ml, cultured 3 days, relative to control, read-out: Inhibition rate (melanin generation)) came out at 52%. Besides, the “Inhibition rate (melanin generation)” value in data set [2] (concentration 5 μg/ml, cultured 3 days, relative to control) is on record as “Apoptosis”. Besides, the “Melanin generation inhibitory effects (in words)” value in data set [2] (cultured mouse melanoma cells, comparison with hydroquinone) was “strong effects of inhibiting melanin generation at a low concentration”.

For `CCCC(=O)Oc1cccc(OC(=O)CCC)c1` [Material in Example 1, 1,3-bis-butyryloxy-benzene], in data set [2] (setting [3]), the inhibition at 5 µg/mL amounted to 43%. In data set [2] (setting [4]), the inhibition at 20 µg/mL was 68%.

As to `CCCCC(=O)Oc1cccc(OC(=O)CCCC)c1` [Material in Example 2, 1,3-bis-pentanoyloxy-benzene], the inhibition at 5 µg/mL in data set [2] (setting [3]) worked out at 52%. In addition, the inhibition at 20 µg/mL in data set [2] (setting [4]) worked out at 85%.

Regarding `CC(C)=CC(=O)Oc1cccc(OC(=O)C=C(C)C)c1` [Material in Example 3, 1,3-bis-(3-methyl-2-butenoyloxy)-benzene], the inhibition at 5 µg/mL in data set [2] (setting [3]) worked out at 53%. In data set [2] (setting [4]), the inhibition at 20 µg/mL was 83%.

For `CCCCCCCC(=O)Oc1cccc(OC(=O)CCCCCCC)c1` [Material in Example 4, 1,3-bis-octanoyloxy-benzene], the inhibition at 5 µg/mL in data set [2] (setting [3]) is 41%. For the same molecule, the inhibition at 20 µg/mL in data set [2] (setting [4]) came out at 71%.

Turning to `CCCCC(CC)C(=O)Oc1cccc(OC(=O)C(CC)CCCC)c1` (stereo not drawn) [Material in Example 5, 1,3-bis-(2-ethyl-hexanoyloxy)-benzene], in data set [2] (setting [3]), the inhibition at 5 µg/mL turned out to be 45%. The inhibition at 20 µg/mL in data set [2] (setting [4]) was 79%.

On to `CCCCCCCCCC(=O)Oc1cccc(OC(=O)CCCCCCCCC)c1` [Material in Example 6, 1,3-bis-decanoyloxy-benzene], for which, in data set [2] (setting [3]), the inhibition at 5 µg/mL stood at 32%. In addition, the inhibition at 20 µg/mL in data set [2] (setting [4]) was 53%.

For `CCCCCCCCCCCC(=O)Oc1cccc(OC(=O)CCCCCCCCCCC)c1` [Material in Example 7, 1,3-bis-lauroyloxy-benzene], the inhibition at 5 µg/mL in data set [2] (setting [3]) worked out at 21%. The inhibition at 20 µg/mL in data set [2] (setting [4]) was found to be 43%.

As for `CCCCC(CC)C(=O)Oc1cc(OC(=O)C(CC)CCCC)c2ccccc2c1` (stereo not drawn) [Material in Example 8, 1,3-bis-(2-ethylhexanoyloxy)-naphthalene], in data set [2] (setting [3]), the inhibition at 5 µg/mL came out at 35%. Also, the inhibition at 20 µg/mL in data set [2] (setting [4]) turned out to be 63%.

Turning to `CCCCC(CC)C(=O)Oc1ccnc(OC(=O)C(CC)CCCC)c1` (stereo not drawn) [Material in Example 9, 2,4-bis-(2-ethylhexanoyloxy)-pyridine], the inhibition at 5 µg/mL in data set [2] (setting [3]) stood at 41%. The inhibition at 20 µg/mL in data set [2] (setting [4]) stood at 67%.

As for `CCCCC(CC)C(=O)Oc1cccc(OC(=O)C(CC)CCCC)c1OC(=O)C(CC)CCCC` (stereo not drawn) [Material in Example 10, 1,2,3-tris-(2-ethylhexanoyloxy)-benzene], the inhibition at 5 µg/mL in data set [2] (setting [3]) worked out at 38%. In addition, the inhibition at 20 µg/mL in data set [2] (setting [4]) worked out at 65%.

As to `CCCCC(CC)C(=O)Oc1ccc(C=Cc2cc(OC(=O)C(CC)CCCC)cc(OC(=O)C(CC)CCCC)c2)cc1` (stereo not drawn) [Material in Example 11, 3,4′,5-tris-(2-ethylhexanoyloxy)-stilbene], in data set [2] (setting [3]), the inhibition at 5 µg/mL came out at 31%. Further, in data set [2] (setting [4]), the inhibition at 20 µg/mL amounted to 54%.

As for `CCCCC(CC)C(=O)Oc1ccc(-c2coc3cc(OC(=O)C(CC)CCCC)cc(OC(=O)C(CC)CCCC)c3c2=O)cc1` (stereo not drawn) [Material in Example 12, 4′,5,7-tris-(2-ethylhexanoyloxy)-isoflavone], the inhibition at 5 µg/mL in data set [2] (setting [3]) came out at 35%. Further, in data set [2] (setting [4]), the inhibition at 20 µg/mL came out at 65%.

For the molecule `CCCCC(CC)C(=O)Oc1cc(OC(=O)C(CC)CCCC)c2c(=O)c(OC(=O)C(CC)CCCC)c(-c3ccccc3)oc2c1` (stereo not drawn) [Material in Example 13, 3,5,7-tris-(2-ethylhexanoyloxy)-flavone], the inhibition at 5 µg/mL in data set [2] (setting [3]) came to 30%. Moreover, in data set [2] (setting [4]), the inhibition at 20 µg/mL came to 63%.

For `CCCCC(CC)C(=O)Oc1ccc(-c2cc(=O)c3c(OC(=O)C(CC)CCCC)cc(OC(=O)C(CC)CCCC)cc3o2)cc1` (stereo not drawn) [Material in Example 14, 5,7,4′-tris-(2-ethylhexanoyloxy)-flavone], the inhibition at 5 µg/mL in data set [2] (setting [3]) came to 31%. The inhibition at 20 µg/mL in data set [2] (setting [4]) stood at 57%.

For the molecule `CCCCC(CC)C(=O)Oc1cc2oc(-c3ccccc3)cc(=O)c2c(OC(=O)C(CC)CCCC)c1OC(=O)C(CC)CCCC` (stereo not drawn) [Material in Example 15, 5,6,7-tris-(2-ethylhexanoyloxy)-flavone], the inhibition at 5 µg/mL in data set [2] (setting [3]) is 39%. In data set [2] (setting [4]), the inhibition at 20 µg/mL is 72%.

In the case of `CCCCC(CC)C(=O)Oc1ccc(C2CC(=O)c3c(OC(=O)C(CC)CCCC)cc(OC(=O)C(CC)CCCC)cc3O2)cc1` (stereo not drawn) [Material in Example 16, 4′,5,7-tris-(2-ethylhexanoyloxy)-flavanone], the inhibition at 5 µg/mL in data set [2] (setting [3]) is 41%. Further, the inhibition at 20 µg/mL in data set [2] (setting [4]) worked out at 59%.

Regarding `CCCCC(CC)C(=O)Oc1ccc(-c2oc3cc(OC(=O)C(CC)CCCC)cc(OC(=O)C(CC)CCCC)c3c(=O)c2OC(=O)C(CC)CCCC)cc1` (stereo not drawn) [Material in Example 17, 3,5,7,4′-tetrakis-(2-ethylhexanoyloxy)-flavone], the inhibition at 5 µg/mL in data set [2] (setting [3]) is 32%. Moreover, in data set [2] (setting [4]), the inhibition at 20 µg/mL was determined as 69%.

As for `CCCCC(CC)C(=O)Oc1cc(C=Cc2ccc(OC(=O)C(CC)CCCC)c(OC(=O)C(CC)CCCC)c2)cc(OC(=O)C(CC)CCCC)c1` (stereo not drawn) [Material in Example 18, 3,4,3′,5′-tetrakis-(2-ethylhexanoyloxy)-stilbene], in data set [2] (setting [3]), the inhibition at 5 µg/mL was determined as 47%. In data set [2] (setting [4]), the inhibition at 20 µg/mL is 72%.

Consider `CCCCC(CC)C(=O)Oc1cc(OC(=O)C(CC)CCCC)c2c(c1)OC(c1ccc(OC(=O)C(CC)CCCC)c(OC(=O)C(CC)CCCC)c1)C(OC(=O)C(CC)CCCC)C2` (stereo not drawn) [Material in Example 19, 3,3′,4′,5,7-pentakis-(2-ethylhexanoyloxy)-flavane], for which the inhibition at 5 µg/mL in data set [2] (setting [3]) is 39%. Moreover, the inhibition at 20 µg/mL in data set [2] (setting [4]) was found to be 69%.
